From PMC12764492, “Therapeutic 6-thio-deoxyguanosine inhibits telomere elongation in cancer cells by inducing a non-productive stalled telomerase complex” (Nature Communications, 2025)

Target: T1, DNA polymerase δ (Pol δ) holoenzyme (Homo sapiens, UniProt P28340)
T1 construct: gene POLD1; recombinant human Pol δ heterotetramer; with other Pol δ subunits (heterotetramer); PCNA
Test: primer extension by reconstituted Pol δ holoenzyme with 6-thio-dGTP ([…]) replacing dGTP; inserted, not significantly inhibitory
Format: biochemical

T1 sequence (P28340 whole entry): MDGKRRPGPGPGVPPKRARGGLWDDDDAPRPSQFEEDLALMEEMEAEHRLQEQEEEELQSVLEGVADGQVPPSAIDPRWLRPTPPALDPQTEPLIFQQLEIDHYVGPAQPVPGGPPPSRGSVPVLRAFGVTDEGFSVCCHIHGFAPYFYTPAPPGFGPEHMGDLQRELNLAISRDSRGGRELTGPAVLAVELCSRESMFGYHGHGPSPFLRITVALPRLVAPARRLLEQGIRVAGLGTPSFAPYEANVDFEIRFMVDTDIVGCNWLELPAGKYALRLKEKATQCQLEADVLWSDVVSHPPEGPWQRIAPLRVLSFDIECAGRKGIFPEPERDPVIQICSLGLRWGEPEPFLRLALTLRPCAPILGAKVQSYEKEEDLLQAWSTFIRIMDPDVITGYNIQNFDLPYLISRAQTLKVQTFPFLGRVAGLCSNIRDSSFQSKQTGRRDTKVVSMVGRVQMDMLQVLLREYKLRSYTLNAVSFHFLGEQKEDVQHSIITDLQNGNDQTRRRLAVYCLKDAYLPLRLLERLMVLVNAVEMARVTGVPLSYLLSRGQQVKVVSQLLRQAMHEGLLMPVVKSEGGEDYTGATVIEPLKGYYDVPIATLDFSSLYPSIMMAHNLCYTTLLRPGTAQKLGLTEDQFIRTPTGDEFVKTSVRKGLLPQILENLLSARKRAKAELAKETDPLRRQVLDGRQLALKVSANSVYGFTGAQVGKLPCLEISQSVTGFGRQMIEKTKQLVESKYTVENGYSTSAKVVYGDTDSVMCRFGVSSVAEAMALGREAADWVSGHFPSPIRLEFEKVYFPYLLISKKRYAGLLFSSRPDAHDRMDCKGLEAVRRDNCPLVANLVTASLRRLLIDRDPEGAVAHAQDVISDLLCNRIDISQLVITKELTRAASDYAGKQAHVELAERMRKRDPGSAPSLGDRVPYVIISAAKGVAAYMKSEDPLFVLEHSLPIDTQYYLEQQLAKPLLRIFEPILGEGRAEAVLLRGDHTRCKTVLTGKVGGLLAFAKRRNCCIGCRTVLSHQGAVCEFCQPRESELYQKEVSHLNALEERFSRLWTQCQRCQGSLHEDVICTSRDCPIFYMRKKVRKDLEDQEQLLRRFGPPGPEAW
T1 sequence (P49005 whole entry partner): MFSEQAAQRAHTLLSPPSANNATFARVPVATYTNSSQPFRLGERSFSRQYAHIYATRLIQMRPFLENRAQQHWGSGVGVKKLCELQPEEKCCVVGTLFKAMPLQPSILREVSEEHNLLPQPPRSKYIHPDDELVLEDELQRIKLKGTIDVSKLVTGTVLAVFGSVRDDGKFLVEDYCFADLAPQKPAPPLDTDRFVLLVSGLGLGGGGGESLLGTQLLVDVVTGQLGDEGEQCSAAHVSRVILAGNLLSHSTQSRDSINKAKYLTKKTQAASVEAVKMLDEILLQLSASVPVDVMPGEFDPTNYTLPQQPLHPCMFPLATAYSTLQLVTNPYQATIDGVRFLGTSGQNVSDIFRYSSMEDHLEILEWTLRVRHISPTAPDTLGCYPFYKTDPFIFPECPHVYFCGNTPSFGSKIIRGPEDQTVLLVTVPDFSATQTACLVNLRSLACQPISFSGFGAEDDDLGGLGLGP
T1 sequence (Q15054 2-466 partner): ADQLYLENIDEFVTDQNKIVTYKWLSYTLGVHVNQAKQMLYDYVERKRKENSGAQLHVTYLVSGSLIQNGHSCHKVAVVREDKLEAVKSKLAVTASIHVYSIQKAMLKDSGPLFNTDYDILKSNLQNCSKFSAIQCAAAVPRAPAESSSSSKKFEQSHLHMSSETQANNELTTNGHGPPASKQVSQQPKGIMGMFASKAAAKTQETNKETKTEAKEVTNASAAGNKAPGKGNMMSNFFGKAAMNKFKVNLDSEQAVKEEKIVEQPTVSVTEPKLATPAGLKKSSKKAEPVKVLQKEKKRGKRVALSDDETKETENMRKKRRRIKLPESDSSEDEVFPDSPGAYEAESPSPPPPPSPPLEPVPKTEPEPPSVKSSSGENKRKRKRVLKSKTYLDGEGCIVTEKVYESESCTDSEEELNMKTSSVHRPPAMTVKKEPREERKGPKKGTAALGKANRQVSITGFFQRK
T1 sequence (Q9HCU8 whole entry partner): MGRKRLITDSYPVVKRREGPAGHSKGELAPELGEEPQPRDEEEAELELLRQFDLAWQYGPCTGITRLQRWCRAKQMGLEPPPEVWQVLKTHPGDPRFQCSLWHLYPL
T1 sequence (P12004 whole entry partner): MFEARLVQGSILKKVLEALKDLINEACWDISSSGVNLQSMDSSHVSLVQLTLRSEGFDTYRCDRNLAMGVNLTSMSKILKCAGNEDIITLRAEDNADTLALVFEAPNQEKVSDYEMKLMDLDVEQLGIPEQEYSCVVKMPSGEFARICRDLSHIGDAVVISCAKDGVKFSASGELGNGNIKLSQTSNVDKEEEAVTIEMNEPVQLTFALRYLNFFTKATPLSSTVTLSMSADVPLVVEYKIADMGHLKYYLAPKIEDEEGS

## Nc1nc2c(ncn2[C@H]2C[C@H](O)[C@@H](COP(=O)(O)OP(=O)(O)OP(=O)(O)O)O2)c(=S)[nH]1 [6-thio-dGTP]
  primer extension by reconstituted Pol δ holoenzyme with 6-thio-dGTP (9.7 μM) rep: The substitution of 6-thio-dGTP for dGTP did not significantly alter primer extension
